Reference: US10065970B2 (Genentech, Inc., priority 2015, dated 2018)

Molecular target: PI3Kα (alpha) (Homo sapiens (Human), UniProt P42336)
Experiment: p110α (alpha) PI3K Binding Assay (ADP-Glo lipid kinase reaction)
Format: biochemical
Settings: PI3K alpha 0.2 nM, ATP 40 μM, PIP2:3PS 50 μM, 120 min, room temperature; Ki by Morrison Equation; read-out: PI3Kα-(alpha) ATP (Ki) micromolar
Description: The ability of a compound of the invention to act as an inhibitor of PI3Kα was determined using the methods of Example 901.
PI3K Binding assays are intended for determining the biochemical potency of small molecule PI3K inhibitors. The PI3K lipid kinase reaction is performed in the presence of PIP2:3PS lipid substrate (Promega #V1792) and ATP. Following the termination if the kinase reaction, turnover of ATP to ADP by the phosphorylation of the lipid substrate is detected using the Promega ADP-Glo™ (Promega #V1792) assay. Reactions are carried out using the following conditions:
After 120 minutes of reaction time, the kinase reaction is terminated. Any ATP remaining after the reaction is depleted, leaving only ADP. Then the Kinase Detection Reagent is added to convert ADP to ATP, which is used in a coupled luciferin/luciferase reaction. The luminescent output is measured and is correlated with kinase activity.
All reactions are carried out at room temperature. A 3 μl mixture (1:1) of enzyme/lipid substrate solution is added to a 384 well white assay plate (Perkin Elmer #6007299) containing 50 nl of test compound or DMSO only for untreated controls. The reaction is started by the addition of 2 μl ATP/MgCl2. The kinase reaction buffer contains 50 mM HEPES, 50 mM NaCl, 3 mM MgCl2, 0.01% BSA, 1% DMSO, and enzyme and substrate concentrations as indicated in the above table. The reaction is stopped by the addition of 10 μL ADP-Glo reagent. Plates are read in a Perkin Elmer Envision system using luminescence mode. 10 point dose response curves are generated for each test compound. Ki values for each compound are determined using the Morrison Equation.

Sequence of PI3Kα (alpha) (P42336 whole entry): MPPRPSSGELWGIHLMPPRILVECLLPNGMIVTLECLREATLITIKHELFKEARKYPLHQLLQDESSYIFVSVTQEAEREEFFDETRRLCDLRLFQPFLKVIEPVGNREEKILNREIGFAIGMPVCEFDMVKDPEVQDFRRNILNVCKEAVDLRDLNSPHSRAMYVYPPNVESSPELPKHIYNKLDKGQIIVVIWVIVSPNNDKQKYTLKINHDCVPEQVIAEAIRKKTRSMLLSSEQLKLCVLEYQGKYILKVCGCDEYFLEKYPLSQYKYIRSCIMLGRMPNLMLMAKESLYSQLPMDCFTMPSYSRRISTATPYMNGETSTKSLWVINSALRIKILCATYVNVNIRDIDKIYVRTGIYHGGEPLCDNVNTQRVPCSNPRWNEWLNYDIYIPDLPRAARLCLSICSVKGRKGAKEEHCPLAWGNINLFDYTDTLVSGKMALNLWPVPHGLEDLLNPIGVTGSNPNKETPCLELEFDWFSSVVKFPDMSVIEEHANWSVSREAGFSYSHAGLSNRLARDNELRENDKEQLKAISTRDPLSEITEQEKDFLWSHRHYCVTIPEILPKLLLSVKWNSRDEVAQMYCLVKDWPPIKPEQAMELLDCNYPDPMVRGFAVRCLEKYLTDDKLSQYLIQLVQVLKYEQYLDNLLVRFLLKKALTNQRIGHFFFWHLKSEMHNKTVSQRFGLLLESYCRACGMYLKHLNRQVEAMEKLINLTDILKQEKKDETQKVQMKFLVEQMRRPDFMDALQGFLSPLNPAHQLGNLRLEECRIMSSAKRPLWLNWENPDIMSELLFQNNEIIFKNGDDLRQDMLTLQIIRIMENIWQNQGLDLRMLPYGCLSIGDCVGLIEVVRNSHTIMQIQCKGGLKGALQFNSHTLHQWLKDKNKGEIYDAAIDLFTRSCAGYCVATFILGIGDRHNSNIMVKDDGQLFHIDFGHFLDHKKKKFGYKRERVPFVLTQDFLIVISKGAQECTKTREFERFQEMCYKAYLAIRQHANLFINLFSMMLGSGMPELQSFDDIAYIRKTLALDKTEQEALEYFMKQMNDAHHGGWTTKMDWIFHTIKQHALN
Sequence of PI3Kα (alpha) (P27986 whole entry partner): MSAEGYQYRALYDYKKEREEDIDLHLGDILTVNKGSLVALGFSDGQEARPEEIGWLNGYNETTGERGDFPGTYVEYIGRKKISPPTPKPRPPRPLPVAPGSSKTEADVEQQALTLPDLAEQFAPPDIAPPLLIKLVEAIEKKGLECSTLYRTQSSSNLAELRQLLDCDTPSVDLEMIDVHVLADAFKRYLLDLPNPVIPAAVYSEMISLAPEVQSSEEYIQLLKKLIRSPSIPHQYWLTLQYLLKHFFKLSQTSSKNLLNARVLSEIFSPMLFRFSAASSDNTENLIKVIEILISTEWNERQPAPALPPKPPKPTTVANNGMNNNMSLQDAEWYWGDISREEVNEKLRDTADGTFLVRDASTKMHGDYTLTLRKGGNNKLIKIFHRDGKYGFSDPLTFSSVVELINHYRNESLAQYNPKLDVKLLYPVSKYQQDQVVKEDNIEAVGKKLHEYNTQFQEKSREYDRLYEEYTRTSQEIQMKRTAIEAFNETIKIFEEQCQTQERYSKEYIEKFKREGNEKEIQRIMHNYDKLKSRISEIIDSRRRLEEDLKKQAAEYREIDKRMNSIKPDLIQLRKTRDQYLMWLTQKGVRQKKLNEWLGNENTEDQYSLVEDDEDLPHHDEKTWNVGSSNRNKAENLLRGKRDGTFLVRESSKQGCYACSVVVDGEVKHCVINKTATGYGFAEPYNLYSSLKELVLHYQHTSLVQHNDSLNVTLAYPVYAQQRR

Structure (SMILES) | Ki [nM]
NC(=O)[C@@H](Nc1cc2c3c(c1)nc(-c1ccc4c(c1)C(=O)NC4)n3CCCO2)C1CC1 [Example 115, (S)-2-Cyclopropyl-2-((1-(3-oxoisoindolin-5-yl)-8,9-dihydro-7H-6-oxa-2,9a-diazabenzo[cd]azulen-4-yl)amino)acetamide] | 36.7
NC(=O)[C@@H](Nc1cc2c3c(c1)nc(-c1ccc4cncnc4c1)n3CCCO2)C1CC1 [Example 116, (S)-2-Cyclopropyl-2-((1-(quinazolin-7-yl)-8,9-dihydro-7H-6-oxa-2,9a-diazabenzo [cd]azulen-4-yl)amino) acetamide] | 19
NC(=O)[C@@H](Nc1cc2c3c(c1)nc(-c1ccc4nccnc4c1)n3CCCO2)C1CC1 [Example 117, (S)-2-Cyclopropyl-2-((1-(quinoxalin-6-yl)-8,9-dihydro-7H-6-oxa-2,9a-diazabenzo[cd]azulen-4-yl)amino)acetamide] | 1.18
N#Cc1cccc(-c2nc3cc(N[C@H](C(N)=O)C4CC4)cc4c3n2CCCO4)c1 [Example 118, (S)-2-((1-(3-Cyanophenyl)-8,9-dihydro-7H-6-oxa-2,9a-diazabenzo[cd]azulen-4-yl)amino)-2-cyclopropylacetamide] | 561
NC(=O)[C@@H](Nc1cc2c3c(c1)nc(-c1ccc4ncncc4c1)n3CCCO2)C1CC1 [Example 119, (S)-2-Cyclopropyl-2-((1-(quinazolin-6-yl)-8,9-dihydro-7H-6-oxa-2,9a-diazabenzo[cd]azulen-4-yl)amino)acetamide] | 215
NC(=O)[C@@H](Nc1cc2c3c(c1)nc(-c1ccc4nc(N)ncc4c1)n3CCCO2)C1CC1 [Example 120] | 5.34
Cc1ccncc1-c1nc2cc(N[C@H](C(N)=O)C3CC3)cc3c2n1CCCO3 [Example 122, (S)-2-Cyclopropyl-2-((1-(4-methylpyridin-3-yl)-8,9-dihydro-7H-6-oxa-2,9a-diazabenzo[cd]azulen-4-yl)amino)acetamide] | 296
Cc1cc(-c2nc3cc(N[C@H](C(N)=O)C4CC4)cc4c3n2CCCO4)nc(CO)n1 [Example 123, (S)-2-Cyclopropyl-2-((1-(2-(hydroxymethyl)-6-methylpyrimidin-4-yl)-8,9-dihydro-7H-6-oxa-2,9a-diazabenzo[cd]azulen-4-yl)amino)acetamide] | 45
CC(C)(C(N)=O)n1cc(-c2cc3c4c(c2)nc(-c2ccc5oc(N)nc5c2)n4CCCO3)cn1 [Example 124, 2-(4-(1-(2-Aminobenzo[d]oxazol-5-yl)-8,9-dihydro-7H-6-oxa-2,9a-diazabenzo[cd]azulen-4-yl)-1H-pyrazol-1-yl)-2-methylpropanamide] | 0.117
NC(=O)[C@@H](Nc1cc2c3c(c1)nc(-c1ccnnc1)n3CCCO2)C1CC1 [Example 125, (S)-2-Cyclopropyl-2-((1-(pyridazin-4-yl)-8,9-dihydro-7H-6-oxa-2,9a-diazabenzo [cd]azulen-4-yl)amino)acetamide] | 221
NC(=O)[C@@H](Nc1cc2c3c(c1)nc(N1CCC(CO)CC1)n3CCCO2)C1CC1 [Example 126, (S)-2-Cyclopropyl-2-[1-(4-hydroxymethylpiperidin-1-yl)-8,9-dihydro-7H-6-oxa-2,9a-diazabenzo[cd]azulen-4-ylamino]acetamide] | 678
NC(=O)[C@@H](Nc1cc2c3c(c1)nc(N1CCCCC1)n3CCCO2)C1CC1 [Example 127, (S)-2-Cyclopropyl-2-(1-piperidin-1-yl-8,9-dihydro-7H-6-oxa-2,9a-diazabenzo[cd]azulen-4-ylamino)acetamide] | 719
COc1ncc(-c2nc3cc(N[C@H](C(N)=O)C4CC4)cc4c3n2CCCO4)cn1 [Example 128, (S)-2-cyclopropyl-2-((1-(2-methoxypyrimidin-5-yl)-8,9-dihydro-7H-6-oxa-2,9a-diazabenzo[cd]azulen-4-yl)amino)acetamide] | 73.5
Cn1nc(-c2nc3cc(N[C@H](C(N)=O)C4CC4)cc4c3n2CCCO4)ccc1=O [Example 129, (S)-2-Cyclopropyl-2-((1-(1-methyl-6-oxo-1,6-dihydropyridazin-3-yl)-8,9-dihydro-7H-6-oxa-2,9a-diazabenzo[cd]azulen-4-yl)amino)acetamide] | 257
COc1ncc(-c2nc3cc(N[C@H](C(N)=O)C4CC4)cc4c3n2CCCO4)cc1Cl [Example 130, (S)-2-((1-(5-Chloro-6-methoxypyridin-3-yl)-8,9-dihydro-7H-6-oxa-2,9a-diazabenzo[cd]azulen-4-yl)amino)-2-cyclopropylacetamide] | 7.67
NC(=O)[C@@H](Nc1cc2c3c(c1)nc(-c1ccc4c(c1)NC(=O)CO4)n3CCCO2)C1CC1 [Example 131, (S)-2-Cyclopropyl-2-((1-(3-oxo-3,4-dihydro-2H-benzo[b][1,4]oxazin-6-yl)-8,9-dihydro-7H-6-oxa-2,9a-diazabenzo[cd]azulen-4-yl)amino)acetamide] | 821
NC(=O)[C@@H](Nc1cc2c3c(c1)nc(-c1ccn4ncnc4c1)n3CCCO2)C1CC1 [Example 132, (S)-2-((1-([1,2,4]Triazolo[1,5-a]pyridin-7-yl)-8,9-dihydro-7H-6-oxa-2,9a-diazabenzo[cd]azulen-4-yl)amino)-2-cyclopropylacetamide] | 1.6
NC(=O)[C@@H](Nc1cc2c3c(c1)nc(-c1ccc4[nH]ncc4c1)n3CCCO2)C1CC1 [Example 133, (S)-2-((1-(1H-Indazol-5-yl)-8,9-dihydro-7H-6-oxa-2,9a-diazabenzo[cd]azulen-4-yl)amino)-2-cyclopropylacetamide] | 43.4
NC(=O)[C@@H](Nc1cc2c3c(c1)nc(-c1cncnc1)n3CCCO2)C1CC1 [Example 134, (S)-2-Cyclopropyl-2-((1-(pyrimidin-5-yl)-8,9-dihydro-7H-6-oxa-2,9a-diazabenzo[cd]azulen-4-yl)amino)acetamide] | 242
NC(=O)[C@@H](Nc1cc2c3c(c1)nc(-c1ccc4oc(N)nc4c1)n3CCCO2)C1CC1 [Example 135, (S)-2-((1-(2-Aminobenzo[d]oxazol-5-yl)-8,9-dihydro-7H-6-oxa-2,9a-diazabenzo[cd]azulen-4-yl)amino)-2-cyclopropylacetamide] | 0.076
NC(=O)[C@@H](Nc1cc2c3c(c1)nc(-c1cncs1)n3CCCO2)C1CC1 [Example 136, (S)-2-Cyclopropyl-2-((1-(thiazol-5-yl)-8,9-dihydro-7H-6-oxa-2,9a-diazabenzo[cd]azulen-4-yl)amino)acetamide] | 76.4
CS(=O)(=O)c1ccc(-c2nc3cc(N[C@H](C(N)=O)C4CC4)cc4c3n2CCCO4)cc1 [Example 137, (S)-2-Cyclopropyl-2-((1-(4-(methylsulfonyl)phenyl)-8,9-dihydro-7H-6-oxa-2,9a-diazabenzo[cd]azulen-4-yl)amino)acetamide] | 916
NC(=O)[C@@H](Nc1cc2c3c(c1)nc(-c1ccc4c(c1)OCCO4)n3CCCO2)C1CC1 [Example 138, (S)-2-Cyclopropyl-2-((1-(2,3-dihydrobenzo[b][1,4]dioxin-6-yl)-8,9-dihydro-7H-6-oxa-2,9a-diazabenzo[cd]azulen-4-yl)amino)acetamide] | 22.9
C[C@H](Nc1cc2c3c(c1)nc(N1CCC[C@@H](CO)C1)n3CCCO2)C(N)=O [Example 139, (S)-2-[1-((R)-3-Hydroxymethylpiperidin-1-yl)-8,9-dihydro-7H-6-oxa-2,9a-diazabenzo[cd]azulen-4-ylamino]propionamide] | 288
